TGI and GI50 data for twelve compounds are collected here from PubChem BioAssay (NCI).

Among the test systems are NCI/ADR-RES ovarian; MCF7 breast; K-562 leukemia; SNB-75 CNS; RXF 393 renal; SR leukemia; NCI-H460 lung; EKVX NSCLC; T-47D breast; SK-MEL-5 melanoma.
Assay in all cases: NCI anticancer screen, dose series, 48 h

Values joined by “and” are separate entries in the source; they are usually repeats but may differ in a detail not shown here. Equal values may be shown once.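 Exposure lasted 48 hours, with cells grown in 96-well plates and compounds tested at five concentrations. Abbreviation: GI50, concentration required for 50% inhibition of growth. TGI denotes the concentration required for complete inhibition of growth.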

In the case of `Cc1cc(NC(=O)NC(=O)c2ccccc2NC(=O)CN)ccc1Oc1ncc(Br)cn1`, the TGI with NCI/ADR-RES ovarian is 12.7 µM; in the assay with MCF7 breast, 23.3 µM and > 100 µM; with SNB-75 CNS, 3.28 µM; in the assay on SR leukemia, 55.8 µM and > 100 µM; in the assay with NCI-H460 lung it was 44.5 µM and 11.8 µM; in the assay with EKVX NSCLC, 39.1 µM and 49.2 µM. The TGI with T-47D breast was 47.4 µM; in the assay with SK-MEL-5 melanoma it was 43.9 µM and 26.8 µM. In addition, the GI50 in the assay with MCF7 breast is 0.174 µM; in the assay on K-562 leukemia it was 0.0285 µM; in the assay on RXF 393 renal it was < 0.01 µM; in the assay on SR leukemia, 0.0302 µM; with NCI-H460 lung, 0.405 µM; in the assay with SK-MEL-5 melanoma it was 0.2 µM and 0.0445 µM.
Take `Cc1ccccc1C(C(=O)NC1CCCCC1)N(C(=O)Cn1ccnc1C)c1cccc(F)c1` (stereo not drawn): the GI50 with NCI/ADR-RES ovarian is > 100 µM; with MCF7 breast it was > 74 µM; with K-562 leukemia, > 100 µM; in the assay with SNB-75 CNS, 15.6 µM; in the assay with RXF 393 renal, 7.5 µM; in the assay with SR leukemia it was > 100 µM. The GI50 in the assay with NCI-H460 lung was > 100 µM; with EKVX NSCLC it was > 100 µM; in the assay with T-47D breast it was > 58.4 µM; in the assay on SK-MEL-5 melanoma, > 100 µM. In addition, the TGI is > 100 µM with NCI/ADR-RES ovarian; > 100 µM in the assay on MCF7 breast; > 100 µM with K-562 leukemia; 59.1 µM in the assay with SNB-75 CNS; 40.5 µM in the assay on RXF 393 renal; > 100 µM in the assay on SR leukemia. Moreover, the TGI in the assay with NCI-H460 lung, with EKVX NSCLC, with T-47D breast and in the assay with SK-MEL-5 melanoma was > 100 µM throughout.
As for `COc1ccc(-n2c(C)nc3c(c(C)nn3-c3ccccc3)c2=O)cc1`, the GI50 is 0.0534 µM in the assay on NCI/ADR-RES ovarian; 0.036 µM in the assay with MCF7 breast; 0.0356 µM with K-562 leukemia; 0.0276 µM in the assay with SNB-75 CNS; 0.0609 µM in the assay with RXF 393 renal; 0.0391 µM in the assay on SR leukemia. In addition, the GI50 with NCI-H460 lung is 0.0478 µM; with EKVX NSCLC, 0.144 µM; with T-47D breast, 0.0403 µM; in the assay with SK-MEL-5 melanoma, 0.0615 µM. Moreover, the TGI in the assay on NCI/ADR-RES ovarian was > 100 µM; with MCF7 breast, > 100 µM; with K-562 leukemia it was > 68.1 µM; in the assay on SNB-75 CNS, > 100 µM; in the assay on RXF 393 renal, > 100 µM; in the assay on SR leukemia, > 58.7 µM. For the same compound, the TGI was > 40 µM in the assay on NCI-H460 lung, > 100 µM in the assay on EKVX NSCLC, 72.5 µM with T-47D breast and 4.6 µM in the assay with SK-MEL-5 melanoma.
With `Cc1cc(N=C2C=C(Nc3cc(C)on3)C(=O)c3ccccc32)no1`, the TGI is > 100 µM in the assay on NCI/ADR-RES ovarian; 63 µM in the assay on MCF7 breast; > 100 µM in the assay on K-562 leukemia; > 87.8 µM with SNB-75 CNS; > 65.9 µM in the assay with RXF 393 renal; > 100 µM in the assay with SR leukemia. Besides, the TGI with NCI-H460 lung was > 100 µM; in the assay with EKVX NSCLC, > 100 µM; with T-47D breast, > 100 µM; in the assay on SK-MEL-5 melanoma, 15.9 µM.
Consider `COc1ccc2c(c1)C(=O)c1c-2n(CCCN2CCOCC2)c(=O)c2cc([N+](=O)[O-])ccc12`, for which the GI50 with NCI/ADR-RES ovarian, with MCF7 breast, in the assay on K-562 leukemia, in the assay with SNB-75 CNS, in the assay with RXF 393 renal and in the assay on SR leukemia was < 0.01 µM in each case. Also, the GI50 in the assay with NCI-H460 lung was < 0.01 µM; with EKVX NSCLC, 0.068 µM; with T-47D breast, < 0.01 µM; in the assay with SK-MEL-5 melanoma it was < 0.01 µM. The TGI with NCI/ADR-RES ovarian was < 0.0279 µM; in the assay with MCF7 breast it was > 100 µM; in the assay on K-562 leukemia, > 37 µM; in the assay with NCI-H460 lung, 0.069 µM; with EKVX NSCLC it was 12 µM; with T-47D breast, > 100 µM. The TGI in the assay with SK-MEL-5 melanoma was < 0.01 µM.
Consider `CNCCOC(=O)/C=C1/CCC2C(C(O)CC3C(C)(C(=O)OC)CCCC23C)C1C` (stereo not drawn), for which the GI50 is 0.0185 µM with NCI/ADR-RES ovarian; 0.0213 µM in the assay on MCF7 breast; 0.0308 µM in the assay with K-562 leukemia; 0.0181 µM in the assay with SNB-75 CNS; 0.0156 µM in the assay on RXF 393 renal; 0.0198 µM in the assay on SR leukemia. Further, the GI50 with NCI-H460 lung was < 0.01 µM; in the assay on EKVX NSCLC, < 0.0136 µM; in the assay on T-47D breast, 0.0294 µM; with SK-MEL-5 melanoma, 0.0163 µM. In addition, the TGI turned out to be 0.0378 µM in the assay on NCI/ADR-RES ovarian; 0.071 µM with MCF7 breast; 0.0953 µM in the assay on K-562 leukemia; 0.0397 µM in the assay with SNB-75 CNS; 0.0521 µM in the assay with RXF 393 renal; 0.0553 µM in the assay on SR leukemia. The TGI in the assay with NCI-H460 lung is 0.019 µM; in the assay on EKVX NSCLC it was 0.0331 µM; in the assay on T-47D breast, 0.0762 µM; with SK-MEL-5 melanoma, 0.0321 µM.
Consider `COc1cc2c3c(n(C)c(=O)c2cc1OC)-c1cc2c(cc1/C3=C/[C@H](N)CCCCN)OCO2`, for which the GI50 with NCI/ADR-RES ovarian was 5.19 µM; with MCF7 breast, 0.537 µM; in the assay on K-562 leukemia, 4.68 µM; in the assay on SNB-75 CNS, 3.74 µM; in the assay with RXF 393 renal it was 3.45 µM; in the assay with SR leukemia, 0.123 µM. Also, the GI50 in the assay with NCI-H460 lung is 0.196 µM; with EKVX NSCLC, 5.93 µM; in the assay with T-47D breast it was 4.85 µM; in the assay with SK-MEL-5 melanoma, 1.49 µM. The TGI in the assay on NCI/ADR-RES ovarian is > 27.1 µM; with MCF7 breast, 3.93 µM; with K-562 leukemia, > 100 µM; in the assay with SNB-75 CNS, 27.7 µM; in the assay with RXF 393 renal it was 12.7 µM; with SR leukemia, > 100 µM. In addition, the TGI was 1.62 µM in the assay on NCI-H460 lung, > 24.8 µM in the assay on EKVX NSCLC, > 100 µM in the assay with T-47D breast and 7.64 µM in the assay with SK-MEL-5 melanoma.
In the case of `CCOC(=O)/C(=C\c1ccc(F)cc1)C(C)=O`, the TGI in the assay with NCI/ADR-RES ovarian is > 100 µM; in the assay with MCF7 breast it was 96.6 µM; in the assay with K-562 leukemia, > 100 µM; with SNB-75 CNS it was 74.2 µM; in the assay on RXF 393 renal, 34.8 µM; in the assay with SR leukemia, 64 µM. For the same compound, the TGI in the assay on NCI-H460 lung was determined as 97.4 µM; with EKVX NSCLC, 83.6 µM; in the assay with T-47D breast, 63.9 µM; in the assay on SK-MEL-5 melanoma, 47.1 µM.
Regarding `COc1ccc(C(=O)CC(c2ccc(OC)c(OC)c2)c2c(O)c3ccccc3oc2=O)cc1OC` (stereo not drawn), the TGI with NCI/ADR-RES ovarian, with MCF7 breast, with K-562 leukemia, in the assay on SNB-75 CNS, with RXF 393 renal and in the assay with SR leukemia was > 100 µM in each case. Further, the TGI in the assay with NCI-H460 lung, with EKVX NSCLC, in the assay with T-47D breast and with SK-MEL-5 melanoma was > 100 µM each time.
As for `COc1cc2ncn(-c3cc(OCc4ccccc4S(C)(=O)=O)c(C#N)s3)c2cc1OC`, the GI50 with NCI/ADR-RES ovarian was > 25 µM; with MCF7 breast it was > 25 µM; in the assay on K-562 leukemia, > 25 µM; with SNB-75 CNS, 8.19 µM; in the assay on RXF 393 renal it was > 14.9 µM; in the assay with SR leukemia, > 25 µM. Also, the GI50 with NCI-H460 lung, in the assay on EKVX NSCLC, with T-47D breast and in the assay with SK-MEL-5 melanoma was > 25 µM each time. Further, the TGI was > 25 µM in the assay on NCI/ADR-RES ovarian; > 25 µM in the assay with MCF7 breast; > 25 µM in the assay with K-562 leukemia; > 22.6 µM in the assay with SNB-75 CNS; > 25 µM with RXF 393 renal; > 25 µM in the assay on SR leukemia. The TGI in the assay on NCI-H460 lung, with EKVX NSCLC, in the assay on T-47D breast and in the assay with SK-MEL-5 melanoma was > 25 µM throughout.
Turning to `COc1ccc(-c2nc3sc4c(c3c(=O)[nH]2)CCCC4)c2ccccc12`, the TGI was 4.95 µM and 2.75 µM in the assay with NCI/ADR-RES ovarian; > 100 µM with MCF7 breast; > 100 µM in the assay with K-562 leukemia; 0.792 µM and 1.61 µM in the assay with SNB-75 CNS; 0.799 µM in the assay with RXF 393 renal; > 100 µM in the assay with T-47D breast. For the same compound, the TGI in the assay with SK-MEL-5 melanoma was 5.52 µM. Further, the GI50 in the assay on RXF 393 renal was 0.253 µM; with SR leukemia it was 0.418 µM; in the assay with NCI-H460 lung, 0.381 µM; in the assay with EKVX NSCLC it was 1.8 µM; in the assay with T-47D breast it was 4.82 µM and 2.85 µM.
On to `NC1=NC(c2ccc(F)cc2)C2=C(N1)c1ccc3ccccc3c1OCC2` (stereo not drawn), for which the GI50 is 43.2 µM in the assay with NCI/ADR-RES ovarian; 4.69 µM in the assay with MCF7 breast; 3.1 µM in the assay on K-562 leukemia; 16.5 µM in the assay with SNB-75 CNS; 18.7 µM in the assay on RXF 393 renal; 2.37 µM in the assay with SR leukemia. Also, the GI50 is 6.96 µM in the assay with NCI-H460 lung, 5.95 µM with EKVX NSCLC, 13.5 µM with T-47D breast and 5.01 µM in the assay on SK-MEL-5 melanoma. Further, the TGI was > 100 µM with NCI/ADR-RES ovarian; > 100 µM in the assay on MCF7 breast; > 100 µM in the assay on K-562 leukemia; 70.5 µM in the assay with SNB-75 CNS; > 100 µM in the assay on RXF 393 renal; > 100 µM with SR leukemia. Also, the TGI with NCI-H460 lung was > 100 µM; in the assay with EKVX NSCLC, 75.2 µM; in the assay on T-47D breast, > 100 µM; in the assay with SK-MEL-5 melanoma it was > 100 µM.
